pIC50: −log10 of the molar value. “Also recorded” adds a separate entry of the source. Read-outs that look alike come from different tables or passages of the source.
Tests used:
FaDu oral cancer cells = experiment: MTT antiproliferative assay, FaDu; type: cell-based; details: for GI50: Homo sapiens, FaDu, read-out: GI50 for FaDu
Description: (§1) FaDu cell line was cultured in RPMI-1640 medium containing L-glutamine (300 mg/L) and sodium bicarbonate (2 g/L), while Cal27, HEK293 and HFF-1 cell lines were cultured in DMEM medium containing glucose (4.5 g/L), L-glutamine (584 mg/L) and sodium bicarbonate (3.7 g/L). For gene expression and qPCR studies, RNA isolation was performed using Trizol (Thermo). The reagents and the primer sequences employed for the qPCR assays have been described previously ([Chakraborty et al., 2022]).
(§2) The hits derived from the docking study were sourced from either commercial suppliers or pre-existing compounds within our laboratory or were synthesized anew. The FaDu and Cal27 oral cancer cells were treated with the compounds for 72 h at concentrations of 3, 10, 30, and 100 μM. A post-treatment MTT assay was done to evaluate their antiproliferative activity. Table S2 represents the anti-proliferative and enzyme inhibitory activity of the compounds obtained as hits from the structure-based drug design strategy. […] Consequently, 50 μM of all the hit compounds were evaluated for their HK2 enzyme inhibitory activity. 50 μM of compounds were incubated with HK2 protein and the rate of reaction was assessed in kinetic mode (rate of conversion of NAD to NADH). The choice of 50 μM concentration was based primarily on MTT assays and GI50 calculation. The average GI50 values of the hit compounds against less sensitive FaDu cell line was approximately 50 μM. Considering this information, we reasoned that utilizing a concentration equivalent to the average GI50 would allow us to assess the maximum inhibitory effect of the compounds on HK2 enzyme activity. […] The same compounds have been previously reported by our team to have EGFR phosphorylation inhibitory potential and were coded as H2 (compound 14) and H10 (compound 11) ([Chakraborty et al., 2022]). […] Figures 1C,D show the lead compounds H2 and H10 at the active site of HK2 enzyme interacting via H-bonds with the amino acid residues.

Cal27 oral cancer cells = experiment: MTT antiproliferative assay, Cal27; type: cell-based; details: Homo sapiens, read-out: GI50 for Cal27
Description: as §1, §2

HK2 [1] = target: T1, HK2 (Homo sapiens, UniProt P52789); experiment: HK2 enzyme inhibition assay (Abcam kit ab211114); type: biochemical; details: read-out: % inhibition of HK2 enzyme activity at 50 µM
T1 construct: purchased Abcam ab211114
T1 sequence (P52789 1-917): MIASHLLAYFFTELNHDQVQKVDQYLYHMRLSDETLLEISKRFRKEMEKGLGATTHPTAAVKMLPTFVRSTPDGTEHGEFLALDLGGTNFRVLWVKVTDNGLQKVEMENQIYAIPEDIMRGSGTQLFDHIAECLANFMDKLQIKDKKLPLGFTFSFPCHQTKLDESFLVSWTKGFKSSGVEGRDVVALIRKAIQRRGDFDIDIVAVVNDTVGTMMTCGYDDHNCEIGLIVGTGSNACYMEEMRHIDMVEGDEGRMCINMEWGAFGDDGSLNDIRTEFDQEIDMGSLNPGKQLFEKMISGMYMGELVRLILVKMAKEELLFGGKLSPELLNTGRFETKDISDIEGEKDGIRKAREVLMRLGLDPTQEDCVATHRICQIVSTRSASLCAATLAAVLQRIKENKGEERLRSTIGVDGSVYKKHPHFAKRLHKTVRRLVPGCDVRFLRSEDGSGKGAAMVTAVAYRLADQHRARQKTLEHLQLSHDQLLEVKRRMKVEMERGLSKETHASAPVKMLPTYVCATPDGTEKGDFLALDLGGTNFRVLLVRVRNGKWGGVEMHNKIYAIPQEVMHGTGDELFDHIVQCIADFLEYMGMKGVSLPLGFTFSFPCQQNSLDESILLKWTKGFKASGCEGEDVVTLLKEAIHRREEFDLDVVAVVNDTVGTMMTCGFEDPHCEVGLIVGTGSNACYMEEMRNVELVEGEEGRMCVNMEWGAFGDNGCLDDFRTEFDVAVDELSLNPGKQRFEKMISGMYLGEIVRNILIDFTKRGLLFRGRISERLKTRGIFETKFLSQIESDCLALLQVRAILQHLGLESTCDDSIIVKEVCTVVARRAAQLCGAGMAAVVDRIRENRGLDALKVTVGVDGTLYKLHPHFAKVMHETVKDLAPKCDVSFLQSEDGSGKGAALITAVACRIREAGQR
Description: The HK2 enzyme inhibition assay was performed using an HK2 inhibitor assay kit (Abcam, ab211114) according to the manufacturer’s instructions. Initially, 50 µM compound concentration was used to perform the enzyme activity inhibition studies, after which IC50 of the top leads were determined.
as §2

FaDu cells = experiment: 2-NBDG glucose uptake assay (flow cytometry), FaDu; type: cell-based; details: 10 μM and 30 μM, 72 h, vs DMSO control
Description: (§3) FaDu and Cal27 cells were treated with test compounds (0.2 million cells per treatment) and were incubated for 1 h with 100 μM of 2-NBDG (Invitrogen, N13195), in glucose free medium, washed with ice-cold PBS, and re-suspended in 500 μL of PBS and maintained on ice to perform flow cytometric analyses within 30 min. The mean fluorescent intensity (MFI) readout reflects the amount of fluorescent glucose analog taken up by the cells, providing insight into their glucose uptake capacity. The percent (%) cell population positive for glucose uptake (shown with a right shift of the histogram peaks) were also plotted for both the cell lines. For MMP analysis, cells were incubated with 200 nM of TMRE (Invitrogen, T669) for 30 min. For each measurement, data was collected for 10,000 events using a BD FACS Aria III (Becton Dickinson, San Jose, CA) instrument.
(§4) 2-[N-(7-Nitrobenz-2-oxa-1,3-diaxol-4-yl) amino]-2-deoxyglucose (2-NBDG) uptake into cells happens via glucose transporters and post uptake 2-NBDG gets phosphorylated by hexokinases. Since cancer cells represent higher glycolytic activity, the inhibition of HK2 activity in cancer cells is actively reflected in the inhibition of 2-NBDG uptake ([Hung et al., 2022]; [Li et al., 2022]). […] In this assay, the MFI of intracellular 2-NBDG serves as a quantitative measure of cellular glucose uptake. […] This finding is further supported by the increased % population of 2-NBDG positive cells in Cal27 cells compared to FaDu cells (Figure 3).

Cal27 cells = experiment: 2-NBDG glucose uptake assay (flow cytometry), Cal27; type: cell-based; details: Cal27, 10 μM and 30 μM, 72 h, vs DMSO control
Description: as §3, §4

HK2 [2] = target: T1, HK2; details: ref Liu and Liu, 2022; read-out: IC50 as reported against HK2; cited from earlier work

Which results are given for `O=C(O)C(=O)CBr` [Compound 1, 3-Bromo pyruvic acid]?
GI50 (FaDu oral cancer cells; 72 h): 23.9 µM; GI50 (Cal27 oral cancer cells; CAL-27, 72 h): 36.4 µM; inhibition at 50 µM (HK2 [1]): 88.2%; 2-NBDG MFI (FaDu cells): significant reduction; 2-NBDG MFI (Cal27 cells): significant reduction; pIC50 (HK2 [2]): > 5.30

For `O=CC[C@@H](O)[C@H](O)[C@H](O)CO` [Compound 15, 2-Deoxy Glucose], which GI50 (FaDu oral cancer cells; MTT, 72 h treatment, mean ± SEM) is on record?
The GI50 was greater than 100 µM.

What about the “GI50 for FaDu” value (FaDu oral cancer cells; MTT, 72 h treatment, mean ± SEM, listed as 2-DG) of the same compound?
Its value is “no efficacy; also recorded: limited efficacy”.

What about the GI50 (Cal27 oral cancer cells; CAL-27, MTT, 72 h treatment, mean ± SEM) of the same compound?
Its GI50 is 77.6 µM.

What about the “2-NBDG MFI” value (FaDu cells) of the same compound?
The value was “significant reduction”.

What about the “2-NBDG MFI” value (Cal27 cells) of the same compound?
Its value is “significant reduction”.
